Test results from ChEMBL document CHEMBL4219147, “Design, synthesis, and structure-activity relationships of novel 4,7,12,12a-tetrahydro-5H-thieno[3',2':3,4]pyrido[1,2-b]isoquinoline and 5,8,12,12a-tetrahydro-6H-thieno[2',3':4,5]pyrido[2,1-a]isoquinoline derivatives as cellular activators of adenosine 5'-monophosphate-activated protein kinase …” (Bioorg Med Chem, 2018).
Active and inactive are the calls of the source. No cut-off for these calls is given here.

How the values were obtained:
[1] = species on record: Rattus norvegicus; test: Activation of AMPK in Sprague-Dawley rat primary hepatocytes assessed as inhibition of gluconeogenesis by measuring glucose production at 5 uM after 6 hrs by colorimetric assay (reference value: 100 +/- 3.5%); parameters: scale not given: the % may be the effect or the level left
[2] = Cytotoxicity against Sprague-Dawley rat L6 cells assessed as cell viability at 20 uM after 12 hrs by SRB assay (reference value: 100 +/- 1.8%); format: cell-based; details: read-out: Activity
[3] = test system: L6; test: Inhibition of mitochondrial respiratory complex 1 in differentiated Sprague-Dawley rat L6 myotube cells assessed as mitochondrial membrane potential at 20 uM after 40 to 60 mins by JC-1 staining based fluorescence assay (reference value: 100 +/- 1.6%); format: cell-based; parameters: scale not given: the % may be the effect or the level left
[4] = test system: L6; test: Upregulation of AMPKalpha phosphorylation at Thr172 residues in Sprague-Dawley rat L6 myotube cells at 5 to 20 uM after 1 hr by Western blot analysis; format: cell-based
[5] = test system: L6; test: Inhibition of mitochondrial respiratory complex 1 in differentiated Sprague-Dawley rat L6 myotube cells assessed as mitochondrial membrane potential at 5 uM after 40 to 60 mins by JC-1 staining based fluorescence assay (reference value: 100 +/- 1.6%); format: cell-based; parameters: scale not given: the % may be the effect or the level left
[6] = test system: L6; test: Activation of AMPK in differentiated Sprague-Dawley rat L6 myotube cells assessed as glucose consumption at 10 uM after 12 hrs by colorimetric assay (reference value: 100 +/- 1.8%); format: cell-based
[7] = species on record: Rattus norvegicus; test: Activation of AMPK in Sprague-Dawley rat primary hepatocytes assessed as inhibition of gluconeogenesis by measuring glucose production after 6 hrs by colorimetric assay
[8] = test system: L6; test: Activation of AMPK in differentiated Sprague-Dawley rat L6 myotube cells assessed as increase in glucose consumption at 10 uM after 12 hrs by colorimetric assay relative to control; format: cell-based
[9] = species on record: Rattus norvegicus; test: Activation of AMPK in Sprague-Dawley rat primary hepatocytes assessed as inhibition of gluconeogenesis by measuring glucose production at 10 uM after 6 hrs by colorimetric assay (reference value: 100 +/- 3.5%); parameters: scale not given: the % may be the effect or the level left
[10] = test system: L6; test: Activation of AMPK in differentiated Sprague-Dawley rat L6 myotube cells assessed as glucose consumption at 20 uM after 12 hrs by colorimetric assay (reference value: 100 +/- 1.8%); format: cell-based
[11] = test system: L6; test: Activation of AMPK in differentiated Sprague-Dawley rat L6 myotube cells assessed as glucose consumption at 5 uM after 12 hrs by colorimetric assay (reference value: 100 +/- 1.8%); format: cell-based
[12] = Cytotoxicity against Sprague-Dawley rat L6 cells assessed as cell viability at 10 uM after 12 hrs by SRB assay (reference value: 100 +/- 1.8%); format: cell-based; details: read-out: Activity
[13] = test system: L6; test: Inhibition of mitochondrial respiratory complex 1 in differentiated Sprague-Dawley rat L6 myotube cells assessed as mitochondrial membrane potential at 10 uM after 40 to 60 mins by JC-1 staining based fluorescence assay (reference value: 100 +/- 1.6%); format: cell-based; parameters: scale not given: the % may be the effect or the level left
[14] = Cytotoxicity against Sprague-Dawley rat L6 cells assessed as cell viability at 5 uM after 12 hrs by SRB assay (reference value: 100 +/- 1.8%); format: cell-based; details: read-out: Activity
[15] = species on record: Rattus norvegicus; test: Activation of AMPK in Sprague-Dawley rat primary hepatocytes assessed as inhibition of gluconeogenesis by measuring glucose production at 20 uM after 6 hrs by colorimetric assay (reference value: 100 +/- 3.5%); parameters: scale not given: the % may be the effect or the level left
[16] = test system: L6; test: Activation of AMPK in Sprague-Dawley rat L6 myotube cells assessed as increase in acetyl-CoA carboxylase phosphorylation at Ser79 residues at 5 to 20 uM after 1 hr by Western blot analysis; format: cell-based
[17] = test system: L6; test: Activation of AMPK in Sprague-Dawley rat L6 myotube cells assessed as increase in acetyl-CoA carboxylase phosphorylation at Ser79 residues at 10 uM after 1 hr by Western blot analysis; format: cell-based
[18] = test system: L6; test: Upregulation of AMPKalpha phosphorylation at Thr172 residues in Sprague-Dawley rat L6 myotube cells at 10 uM after 1 hr by Western blot analysis; format: cell-based

Row | Activity [1] | inhibition [7] | Activity [9] | Activity [15] | SMILES | viability at 12 h, 20 µM [2] | Activity [3] | Activity [4] | Activity [5] | Activity [6] | fold change (FC) [8] | Activity [10] | Activity [11] | viability at 12 h, 10 µM [12] | Activity [13] | viability at 12 h, 5 µM [14] | Activity [16] | Activity [17] | Activity [18]
1 | 59.5% | Dose-dependent effect | 48.2% | 40.9% | c1ccc(Cc2cc3c(s2)CC2c4cc5c(cc4CCN2C3)OCO5)cc1 (stereo not given) | 101% | 79.7% | Active | 98.2% | 242% | 2.4 | 264% | 194% | 101% | 90.7% | 102% | Active |  | 
2 | 57.6% |  |  |  | COc1ccc2cc3[n+](cc2c1OC)CCc1cc2c(cc1-3)OCO2 [BERBERINE CHLORIDE] |  | 84.5% |  | 91.5% | 228% |  |  |  | 100% | 85.8% |  |  | Active | Active
3 | 58.3% | Dose-dependent effect | 55.6% | 53.7% | CCCCc1cc2c(s1)CC1c3cc4c(cc3CCN1C2)OCO4 (stereo not given) | 97.7% | 57.5% | Active | 75.1% | 287% | 2.9 | 285% | 265% | 98.8% | 68.9% | 102% | Active |  | 
